Results: PubChem BioAssay AID248 (DTP/NCI, 2004)
Where “and” joins values, the source holds several entries; their conditions need not be identical. Equal values may be shown once. Inconclusive results and toxic doses are left out. No stated cut-off is given here; in the data, active means T/C of 150% or more; inactive means T/C below 125%. Peptide text beside a SMILES is read from it. * marks the point of attachment. Bn = c1ccc(C*)cc1

Tested on: L1210 leukemia ip in BDF1 mice, survival T/C
Assay: NCI In Vivo Anticancer Drug Screen. Data for tumor model L1210 Leukemia (intraperitoneal) in B6D2F1 (BDF1) mice
Conditions: endpoint: mean survival time, higher = longer survival
Procedure, shortened: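 Ratio derived from survival: compound-dosed mice over vehicle-dosed mice, all bearing a transplantable tumor.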

[1] = dose: 100.0 mg/kg/injection, schedule: Q04DX003 (ip), vehicle: saline
[2] = dose: 200.0 mg/kg/injection, schedule: Q04DX003 (ip), vehicle: saline
[3] = dose: 400.0 mg/kg/injection, schedule: Q04DX003 (ip), vehicle: saline
[4] = dose: 50.0 mg/kg/injection, schedule: Q01DX009 (ip), vehicle: Klucel (hydroxypropylcellulose) (HPC)
[5] = dose: 100.0 mg/kg/injection, schedule: Q01DX009 (ip), vehicle: Klucel (hydroxypropylcellulose) (HPC)
[6] = dose: 100.0 mg/kg/injection, schedule: Q04DX003 (ip), vehicle: Klucel (hydroxypropylcellulose) (HPC)
[7] = dose: 200.0 mg/kg/injection, schedule: Q01DX009 (ip), vehicle: Klucel (hydroxypropylcellulose) (HPC)
[8] = dose: 200.0 mg/kg/injection, schedule: Q04DX003 (ip), vehicle: Klucel (hydroxypropylcellulose) (HPC)
[9] = dose: 25.0 mg/kg/injection, schedule: Q04DX003 (ip), vehicle: saline
[10] = dose: 100.0 mg/kg/injection, schedule: Q01DX001 (ip), vehicle: saline
[11] = dose: 400.0 mg/kg/injection, schedule: Q04DX003 (ip), vehicle: Klucel (hydroxypropylcellulose) (HPC)
[12] = dose: 200.0 mg/kg/injection, schedule: Q01DX001 (ip), vehicle: saline
[13] = dose: 400.0 mg/kg/injection, schedule: Q01DX001 (ip), vehicle: saline
[14] = dose: 50.0 mg/kg/injection, schedule: Q04DX002 (ip), vehicle: Klucel (hydroxypropylcellulose) (HPC)
[15] = dose: 100.0 mg/kg/injection, schedule: Q04DX002 (ip), vehicle: Klucel (hydroxypropylcellulose) (HPC)
[16] = dose: 25.0 mg/kg/injection, schedule: Q01DX009 (ip), vehicle: saline
[17] = dose: 50.0 mg/kg/injection, schedule: Q01DX009 (ip), vehicle: saline
[18] = dose: 100.0 mg/kg/injection, schedule: Q01DX009 (ip), vehicle: saline
[19] = dose: 25.0 mg/kg/injection, schedule: Q01DX009 (ip), vehicle: saline with Tween-80
[20] = dose: 100.0 mg/kg/injection, schedule: Q01DX009 (ip), vehicle: saline with Tween-80
[21] = dose: 100.0 mg/kg/injection, schedule: Q04DX003 (ip), vehicle: saline with Tween-80

Measured: T/C

O=C(COc1ccc(Cl)c(Cl)c1)Nc1ccc[n+](Cc2ccc(Cl)c(S(=O)(=O)F)c2)c1
inactive: [1] 106 % of control | [2] 94 % of control | [3] 105 % of control

CN(C)CCCNC(=S)C(=S)NCCCN(C)C
inactive: [4] 105 % of control | [5] 105 % of control | [6] 94 % of control | [7] 96 % of control | [8] 94 % of control

NNc1n[nH]c(=S)n1N
inactive: [9] 90 % of control | [1] 97 % of control

CC1=CC(=O)OC2(C1)CC1CCC2CN1C (stereo not drawn)
inactive: dose: 50.0 mg/kg/injection, schedule: Q01DX001 (ip), vehicle: saline 95 % of control | [10] 101 % of control

Cc1ccc(NC(=O)Oc2ccc(OC(=O)Cc3ccccc3)cc2)cc1NC(=O)Oc1ccc(OC(=O)Cc2ccccc2)cc1
inactive: dose: 100.0 mg/kg/injection, schedule: Q01DX009 (ip), vehicle: other 96 % of control | dose: 200.0 mg/kg/injection, schedule: Q01DX009 (ip), vehicle: other 98 % of control | dose: 400.0 mg/kg/injection, schedule: Q01DX009 (ip), vehicle: other 93 % of control

O=c1cc(NC(c2ccccc2)c2ccccc2)[nH]c(=O)[nH]1
inactive: [6] 97 % of control | [8] 97 % of control | [11] 98 % of control

Cc1coc2c1CC1(C)C(CCC(O)C1C)C2 (stereo not drawn)
inactive: [10] 97 % of control | [12] 100 % of control | [13] 103 % of control

O=C1NC(=O)C2(CCCc3ccccc32)N1 (stereo not drawn)
inactive: dose: 25.0 mg/kg/injection, schedule: Q04DX002 (ip), vehicle: Klucel (hydroxypropylcellulose) (HPC) 110 % of control | [14] 104 % of control | [15] 100 % of control

C=CC1CC[N-]CC1.C=CC1CC[N-]CC1.C=CC1CC[N-]CC1.[Cl][Cr]([Cl])[Cl]
inactive: [16] 97 % of control | [17] 94 % of control

Cc1ccc(Cl)cc1NC(=O)/C=C/c1ccccc1
inactive: [5] 104 % of control | [7] 104 % of control | dose: 400.0 mg/kg/injection, schedule: Q01DX009 (ip), vehicle: Klucel (hydroxypropylcellulose) (HPC) 102 % of control

O=C(NNc1ccccc1)c1ccccc1
inactive: [4] 101 % of control | [5] 101 % of control | [6] 94 % of control | [1] 100 % of control | [7] 110 % of control | [8] 107 % of control | [2] 103 % of control | [11] 100 % of control | [3] 93 % of control

[N-]=[N+]=Nc1ccc(Cl)cc1C(=O)c1ccccc1
inactive: [16] 120 % of control | [9] 98 % of control | [17] 109 % of control | dose: 50.0 mg/kg/injection, schedule: Q04DX003 (ip), vehicle: saline 104 % of control | [18] 111 % of control | [1] 102 % of control and 113 % of control

C[C@@H]1CC2=CC(=O)C=C[C@]2(C)[C@H]2CC[C@@]3(C)[C@@H](CC[C@]3(C)O)[C@H]12
inactive: dose: 100.0 mg/kg/injection, schedule: Q01DX001 (sc), vehicle: steriod suspending solution 104 % of control | dose: 200.0 mg/kg/injection, schedule: Q01DX001 (sc), vehicle: steriod suspending solution 106 % of control | dose: 400.0 mg/kg/injection, schedule: Q01DX001 (sc), vehicle: steriod suspending solution 97 % of control

Nc1cncnc1N
inactive: dose: 30.0 mg/kg/injection, schedule: Q01DX Z (ip), vehicle: saline 101 % of control | dose: 60.0 mg/kg/injection, schedule: Q01DX Z (ip), vehicle: saline 103 % of control | dose: 120.0 mg/kg/injection, schedule: Q01DX Z (ip), vehicle: saline 100 % of control | dose: 240.0 mg/kg/injection, schedule: Q01DX Z (ip), vehicle: saline 97 % of control

CCNCCC[P+](c1ccccc1)(c1ccccc1)c1ccccc1
inactive: dose: 25.0 mg/kg/injection, schedule: Q04DX002 (ip), vehicle: saline 98 % of control | dose: 50.0 mg/kg/injection, schedule: Q04DX002 (ip), vehicle: saline 105 % of control | dose: 100.0 mg/kg/injection, schedule: Q04DX002 (ip), vehicle: saline 98 % of control and 91 % of control

CCCCCCCCCCOB(OCCCCCCCCCC)OCCCCCCCCCC
inactive: [19] 93 % of control | dose: 50.0 mg/kg/injection, schedule: Q01DX009 (ip), vehicle: saline with Tween-80 96 % of control | [20] 96 % of control

COC(=O)C(CC(C)C)NC(=O)C(N)Cc1ccc(OCc2ccccc2)cc1 (stereo not drawn) (H-Tyr(Bn)-Leu-OMe; configuration not given here)
inactive: dose: 6.25 mg/kg/injection, schedule: Q01DX009 (ip), vehicle: saline with Tween-80 111 % of control | dose: 12.5 mg/kg/injection, schedule: Q01DX009 (ip), vehicle: saline with Tween-80 111 % of control | [19] 106 % of control and 90 % of control | dose: 25.0 mg/kg/injection, schedule: Q04DX003 (ip), vehicle: saline with Tween-80 98 % of control | dose: 50.0 mg/kg/injection, schedule: Q04DX003 (ip), vehicle: saline with Tween-80 104 % of control | [21] 96 % of control and 102 % of control

N#CCCCC[P+](c1ccccc1)(c1ccccc1)c1ccccc1
inactive: [16] 107 % of control | [17] 93 % of control

COC1(OC)C2(Cl)C3C(=O)C4C5C(=O)C3C1(Cl)C5(Cl)C42Cl (stereo not drawn)
inactive: [10] 105 % of control | [12] 94 % of control | [13] 89 % of control

O=C(c1cccc(C(=O)n2c3c(c4ccccc42)CCCC3)c1)n1c2c(c3ccccc31)CCCC2
inactive: [20] 90 % of control | [21] 95 % of control | dose: 200.0 mg/kg/injection, schedule: Q01DX009 (ip), vehicle: saline with Tween-80 90 % of control | dose: 200.0 mg/kg/injection, schedule: Q04DX003 (ip), vehicle: saline with Tween-80 98 % of control | dose: 400.0 mg/kg/injection, schedule: Q01DX009 (ip), vehicle: saline with Tween-80 94 % of control | dose: 400.0 mg/kg/injection, schedule: Q04DX003 (ip), vehicle: saline with Tween-80 88 % of control

CS(=O)(=O)c1ccc(C(=N)N)cc1
inactive: [18] 93 % of control | dose: 200.0 mg/kg/injection, schedule: Q01DX009 (ip), vehicle: saline 97 % of control | dose: 400.0 mg/kg/injection, schedule: Q01DX009 (ip), vehicle: saline 95 % of control

CCC(C)C(C=NCC(CCN1CCOCC1)(c1ccc2ccccc2c1)C(C)CC)(CCN1CCOCC1)c1ccc2ccccc2c1 (stereo not drawn)
inactive: [14] 100 % of control | [15] 92 % of control | dose: 200.0 mg/kg/injection, schedule: Q04DX002 (ip), vehicle: Klucel (hydroxypropylcellulose) (HPC) 92 % of control

Cc1nnc(NC(=O)NCCCl)s1
inactive: [6] 100 % of control | [8] 107 % of control | [11] 118 % of control
